Test results: patent US20040204443A1, “Method for inducing pain relief using imidazo[1,2-a]pyridine derivatives” (priority 2003, published 2004)

Tests used:
[1] = has been reported; cited from earlier work
[2] = may be eliminated more slowly in obese individuals; cited from earlier work
[3] = system: intense, bilateral pain in both feet; assay: Case report: patient with bilateral foot pain, oral drug treatment; assay type: in vivo, human patient; conditions: for decrease in pain: foot pain from stretched plantar fascia, earlier drug treatments
Description: Additionally, the patient was treated with topical lidocaine and with a tens machine.

[4] = system: pain in patient with metastatic cancer; assay: Case report: second patient with metastatic cancer pain; assay type: in vivo, human patient
From the text: A second patient with metastatic cancer was also experiencing pain and had reported little or no relief from common analgesics.

[5] = system: intense, bilateral pain in both feet; assay: Case report: same foot-pain patient, topical application in a cream; assay type: in vivo, human patient; conditions: applied topically in a cream

Cc1ccc(-c2nc3ccc(C)cn3c2CC(=O)N(C)C)cc1 [AMBIEN, N,N,6-trimethyl-2-p-tolyl-imidazo[1,2-a]pyridine-3-acetamide]
time in which metabolized [1]: 6 to 8 h | lipophilicity [2]: lipophilic | duration of pain abatement ([3]; obese person, 10 mg H.S.): 12 to 14 h | other foot pains (arch, heel, cuboid area) ([3]; person): ameliorated | effective dosage ([3]; person, 10 mg H.S.): about 0.08 mg per kg | abatement of pain ([3]; person, 10 mg H.S., able to walk prior to retiring): noticeable abatement of pain | analgesic effect [4]: marked analgesic effect | pain relief after topical application [5]: reported pain relief

CN(C)CCC=C1c2ccccc2CCc2ccccc21 [Elavil, amitryptiline]
decrease in pain ([3]; person): only the latter showing any decrease in pain

Nc1nnc(-c2cccc(Cl)c2Cl)c(N)n1 [Lamictal]
decrease in pain ([3]; person): only the latter showing any decrease in pain

NCC1(CC(=O)O)CCCCC1 [Neurontin]
decrease in pain ([3]; person): only the latter showing any decrease in pain

CNCCC=C1c2ccccc2CCc2ccccc21 [Parmelar, nortryptiline]
decrease in pain ([3]; person): only the latter showing any decrease in pain

CC1(C)O[C@@H]2[C@@H](CO[C@@]3(COS(N)(=O)=O)OC(C)(C)O[C@@H]23)O1 [Topamax]
decrease in pain ([3]; person): only the latter showing any decrease in pain

COc1cccc(C2(O)CCCCC2CN(C)C)c1 (centres unmarked) [Ultram]
decrease in pain ([3]; person): only the latter showing any decrease in pain
